Laboratory results reported in patent publication US7045300B2, “Lectin protein prepared from Maackia fauriei, process for preparing the same and the use thereof” (priority 2001, dated 2006).

B1: Fetuin: glycoprotein containing N-acetylneuraminic acid (protein, UniProt P12763 19-359, looked up)
Alpha-2-HS-glycoprotein: IPLDPVAGYKEPACDDPDTEQAALAAVDYINKHLPRGYKHTLNQIDSVKVWPRRPTGEVYDIEIDTLETTCHVLDPTPLANCSVRQQTQHAVEGDCDIHVLKQDGQFSVLFTKCDSSPDSAEDVRKLCPDCPLLAPLNDSRVVHAVEVALATFNAESNGSYLQLVEISRAQFVPLPVSVSVEFAVAATDCIAKEVVDPTKCNLLAEKQYGFCKGSVIQKALGGEDVRVTCTLFQTQPVIPQPQPDGAEAEAPSAVPDAAGPTPSAAGPPVASVVVGPSVVAVPLPLHRAHYDLRHTFSGVASVESSSGEAFHVGKTPIVGQPSIPGGPVRLCPGRIRYFKI
B2: Asialofetuin: glycoprotein tested as hemagglutination inhibitor (protein, UniProt P12763 19-359, looked up)
Alpha-2-HS-glycoprotein: IPLDPVAGYKEPACDDPDTEQAALAAVDYINKHLPRGYKHTLNQIDSVKVWPRRPTGEVYDIEIDTLETTCHVLDPTPLANCSVRQQTQHAVEGDCDIHVLKQDGQFSVLFTKCDSSPDSAEDVRKLCPDCPLLAPLNDSRVVHAVEVALATFNAESNGSYLQLVEISRAQFVPLPVSVSVEFAVAATDCIAKEVVDPTKCNLLAEKQYGFCKGSVIQKALGGEDVRVTCTLFQTQPVIPQPQPDGAEAEAPSAVPDAAGPTPSAAGPPVASVVVGPSVVAVPLPLHRAHYDLRHTFSGVASVESSSGEAFHVGKTPIVGQPSIPGGPVRLCPGRIRYFKI
modifications: desialylated

How the values were obtained:
lectin MFA [1] = experiment: Hemagglutination-inhibition assay of the lectin MFA with monosaccharide, disaccharide and glycoprotein; type: biochemical, Maackia fauriei; parameters: key to Minimum erythrocyte agglutination inhibition concentration: —: The negative sign (−) means that there is no hemagglutination-inhibition; conditions: for Minimum erythrocyte agglutination inhibition concentration: 6.25% mouse erythrocyte, lectin MFA diluted 128-fold; for inhibition of agglutination: starting from 1 mg/ml solution of each carbohydrate, 128-fold diluted lectin MFA
Protocol: In order to confirm that the lectin MFA of the present invention recognizes N-acetylneuraminic acid, hemagglutination-inhibition reaction was performed using monosaccharide, disaccharide and glycoprotein. 50 μl of a 128-fold diluted solution of lectin MFA in 0.15 M NaCl and 50 μl of each 1 mg/ml solution of monosaccharides (e.g., β-D-glucose, D-galactose, L-fucose, D-mannose, N-acetylneuraminic acid, N-glycolylneuraminic acid, N-acetyl-D-glucosamine, N-acetyl-D-galactosamine and methyl-α-D-glucopyranoside), disaccharide (e.g., α-lactose, β-lactose, D-lactose, β-gentiobiose, maltose, D-raffinose or D-cellobiose) and glycoprotein (e.g., fetuin and asialofetuin) in 0.15 M NaCl were added to the each well of a 96-well microplate. After the reaction for one hour or more at room temperature, 50 μl of the erythrocyte suspended in 0.15 M NaCl was added to each well and reacted for one hour at room temperature.
The negative sign (−) means that there is no hemagglutination-inhibition. […] NeuGc and NeuAc represent N-glycolylneuraminic acid and N-acetylneuraminic acid, respectively.

lectin MFA [2] = experiment: as above; type: biochemical, Maackia fauriei; conditions: at 10 mM
[3] = Comparison of binding specificity of lectins, hemagglutination inhibition by N-acetylneuraminic acid; type: biochemical; conditions: 6.25% human B type erythrocyte; tested up to 10 mM
Protocol: (§1) The binding specificity of the MFA with Wheat germ agglutinin, Maackia amurensis aggulutinin, Limulus polyphemus lectin, and Sambucus niger agglutinin which have already been reported to recognize N-acetylneuraminic acid was determined by a hemagglutination inhibition response using 10 mM of N-acetylneuraminic acid and N-acetylneuraminic acid-binding fetuin.
(§2) The negative sign (−) means no hemagglutination inhibition up to 10 mM

fetuin = experiment: Comparison of binding specificity of lectins, hemagglutination inhibition by fetuin; type: biochemical; conditions: 6.25% human B type erythrocyte
Protocol: as §1, §2

Row | Molecule | Minimum erythrocyte agglutination inhibition concentration (lectin MFA [1]; dash = no inhibition) | other results
1 | OC[C@H]1O[C@@H](O[C@H]2[C@H](O)[C@@H](O)[C@H](O)O[C@@H]2CO)[C@H](O)[C@@H](O)[C@@H]1O [D-cellobiose] | — | 
2 | O=C[C@H](O)[C@@H](O)[C@@H](O)[C@H](O)CO [D-galactose] | — | 
3 | OC[C@H]1O[C@@H](O[C@H]2[C@H](O)[C@@H](O)C(O)O[C@@H]2CO)[C@H](O)[C@@H](O)[C@H]1O (stereo partly drawn) [D-lactose] | — | 
4 | O=C[C@@H](O)[C@@H](O)[C@H](O)[C@H](O)CO [D-mannose] | — | 
5 | OC[C@H]1O[C@H](OC[C@H]2O[C@H](O[C@]3(CO)O[C@H](CO)[C@@H](O)[C@@H]3O)[C@H](O)[C@@H](O)[C@@H]2O)[C@H](O)[C@@H](O)[C@H]1O [D-raffinose] | — | 
6 | C[C@H](O)[C@@H](O)[C@@H](O)[C@H](O)C=O [L-fucose] | — | 
7 | OC[C@H]1O[C@H](O[C@H]2[C@H](O)[C@@H](O)[C@H](O)O[C@@H]2CO)[C@H](O)[C@@H](O)[C@@H]1O [Maltose] | — | 
8 | CO[C@H]1O[C@H](CO)[C@@H](O)[C@H](O)[C@H]1O [Methyl-α-D-glucopyranoside] | — | 
9 | CC(=O)N[C@H]1C(O)O[C@H](CO)[C@H](O)[C@@H]1O (stereo partly drawn) [N-acetyl-D-galactosamine] | — | 
10 | CC(=O)N[C@H]1C(O)O[C@H](CO)[C@@H](O)[C@@H]1O (stereo partly drawn) [N-acetyl-D-glucosamine] | — | 
11 | CC(=O)N[C@H]1C(O)O[C@H](CO)[C@@H](O[C@@H]2O[C@H](CO)[C@H](O)[C@H](O)[C@H]2O)[C@@H]1O (some centres unmarked) [N-acetylactosamine] |  | hemagglutination inhibition (lectin MFA [2]): did not show hemagglutination inhibition
12 | CC(=O)N[C@H]1[C@H]([C@H](O)[C@H](O)CO)OC(O)(C(=O)O)C[C@@H]1O (some centres unmarked) [N-acetylneuraminic acid] |  | Minimum erythrocyte agglutination inhibition concentration (lectin MFA [1]): 10.0 mM; inhibition of agglutination (lectin MFA [1]): inhibited the agglutination
13 | O=C(CO)N[C@H]1[C@H]([C@H](O)[C@H](O)CO)OC(O)(C(=O)O)C[C@@H]1O (some centres unmarked) [N-glycolylneuraminic acid] | — | 
14 | OC[C@H]1O[C@@H](O[C@H]2[C@H](O)[C@@H](O)[C@@H](O)O[C@@H]2CO)[C@H](O)[C@@H](O)[C@H]1O [α-lactose] | — | 
15 | OC[C@H]1O[C@@H](O)[C@H](O)[C@@H](O)[C@@H]1O [β-D-glucose] | — | 
16 | OC[C@H]1O[C@@H](OC[C@H]2O[C@@H](O)[C@H](O)[C@@H](O)[C@@H]2O)[C@H](O)[C@@H](O)[C@@H]1O [β-gentiobiose] | — | 
17 | OC[C@H]1O[C@@H](O[C@H]2[C@H](O)[C@@H](O)[C@H](O)O[C@@H]2CO)[C@H](O)[C@@H](O)[C@H]1O [β-lactose] | — | 
18 | Wheat germ agglutinin |  | Minimum hemagglutination-inhibition concentration, N-acetylneuraminic acid [3]: — (The negative sign (−) means no hemagglutination inhibition up to 10 mM); Minimum hemagglutination-inhibition concentration, Fetuin (fetuin): 207 µM
19 | B1 |  | Minimum erythrocyte agglutination inhibition concentration (lectin MFA [1]): 0.0052 mM; inhibition of agglutination (lectin MFA [1]): inhibited the agglutination
20 | B2 | — | 
